MIC data for 15 compounds are collected here from ChEMBL document CHEMBL4476873, “Substituted urea depsipeptide analogs as activators of the clpp endopeptidase” (2018).

Each structure is given as a SMILES string. ≈ marks a conversion by molar mass, not a printed value.

Assay type in all cases: functional
Experiment [1] relates to Staphylococcus aureus. Nature of the experiment: Antimicrobial activity against Staphylococcus aureus USA300 incubated overnight under aerobic condition by microbroth dilution method. On the technique in general: Broth dilution looks for growth in wells or tubes with falling amounts of substance.
Experiment [2] relates to Staphylococcus aureus. Briefly: Antimicrobial activity against Staphylococcus aureus NRS70 incubated overnight under aerobic condition by microbroth dilution method.
Experiment [3] has as its system Staphylococcus aureus. Briefly: Antimicrobial activity against Staphylococcus aureus USA300 deficient in ClpP incubated overnight under aerobic condition by microbroth dilution method.
The subject of experiment [4] is Staphylococcus aureus. Nature of the experiment: Antimicrobial activity against Staphylococcus aureus ATCC 29213 incubated overnight under aerobic condition by microbroth dilution method.

By MIC is commonly meant the least concentration at which growth counts as inhibited. Turning to `O=C(N[C@H](CO)[C@H](O)c1ccc([N+](=O)[O-])cc1)C(Cl)Cl` [CHLORAMPHENICOL], the MIC against Staphylococcus aureus [1] and in the experiment on Staphylococcus aureus [2] was 3.1 µM (≈ 1 µg/mL) in each case.

The compound `Cc1ccc(NC(=O)N[C@@H](Cc2cc(F)cc(F)c2)C(=O)N[C@H]2COC(=O)[C@@H]3CC(C)(C)CN3C(=O)[C@H](C)NC(=O)[C@@H]3CCCCN3C(=O)[C@@H]3CCCN3C2=O)cc1` had a minimum inhibitory concentration (MIC) in the experiment with Staphylococcus aureus [3] of 100 µM (≈ 80.8 µg/mL).

With `CCc1ccc(NC(=O)N[C@@H](Cc2cc(F)cc(F)c2)C(=O)N[C@@H]2C(=O)N3CCC[C@H]3C(=O)N(C)[C@@H](C)C(=O)N[C@@H](C)C(=O)N3C[C@@H](C)C[C@H]3C(=O)O[C@H]2C)cc1`, the MIC with Staphylococcus aureus [4] and against Staphylococcus aureus [1] was 0.1 µM (≈ 0.0796 µg/mL) throughout.

`Cc1ccc(NC(=O)N[C@@H](Cc2cc(F)cc(F)c2)C(=O)N[C@H]2COC(=O)[C@@H]3C[C@H](C)CN3C(=O)[C@H](C)NC(=O)[C@@H]3CCCCN3C(=O)[C@@H]3CCCN3C2=O)cc1`: the lowest concentration to inhibit growth with Staphylococcus aureus [3] (MIC) was 100 µM (≈ 79.4 µg/mL).

Consider `C[C@@H]1C[C@H]2C(=O)O[C@@H](C)[C@H](NC(=O)[C@H](Cc3cc(F)cc(F)c3)NC(=O)Nc3ccc(OC(F)(F)F)cc3)C(=O)N3CCC[C@H]3C(=O)N3CCCC[C@H]3C(=O)N[C@@H](C)C(=O)N2C1`, for which the MIC with Staphylococcus aureus [4] and in the experiment with Staphylococcus aureus [1] was 0.05 µM (≈ 0.0439 µg/mL) in each case.

Consider `C[C@H]1C[C@H]2C(=O)OC[C@H](NC(=O)[C@H](Cc3ccccc3)NC(=O)Nc3ccc(OC(F)(F)F)cc3)C(=O)N3CCC[C@H]3C(=O)N3CCCC[C@H]3C(=O)N[C@@H](C)C(=O)N2C1`, for which the MIC against Staphylococcus aureus [4] and against Staphylococcus aureus [2] was 0.4 µM (≈ 0.331 µg/mL) throughout.

The compound `Cc1ccc(NC(=O)N[C@@H](Cc2cc(F)cc(F)c2)C(=O)N[C@H]2COC(=O)[C@@H]3C[C@H](F)CN3C(=O)[C@H](C)NC(=O)[C@@H]3CCCCN3C(=O)[C@@H]3CCCN3C2=O)cc1` returned an MIC in the experiment with Staphylococcus aureus [3] above 200 µM.

On to `CCc1cccc(NC(=O)N[C@@H](Cc2ccccc2)C(=O)N[C@H]2COC(=O)[C@@H]3C[C@@H](C)CN3C(=O)[C@H](C)NC(=O)[C@@H]3CCCCN3C(=O)[C@@H]3CCCN3C2=O)c1`, for which the MIC against Staphylococcus aureus [4] and with Staphylococcus aureus [2] was 0.6 µM (≈ 0.463 µg/mL) each time.

Regarding `Cc1ccc(NC(=O)N[C@@H](Cc2ccccc2)C(=O)N[C@H]2COC(=O)[C@@H]3C[C@H](C)CN3C(=O)[C@H](C)NC(=O)[C@@H]3CCCCN3C(=O)[C@@H]3CCCN3C2=O)cc1`, the MIC against Staphylococcus aureus [3] was above 200 µM.

On to `Cc1ccc(NC(=O)N[C@@H](Cc2cc(F)cc(F)c2)C(=O)N[C@H]2COC(=O)[C@@H]3C[C@@H](F)CN3C(=O)[C@H](C)NC(=O)[C@@H]3CCCCN3C(=O)[C@@H]3CCCN3C2=O)cc1`, for which the MIC in the experiment on Staphylococcus aureus [3] was above 200 µM.

Consider `C[C@H]1C[C@H]2C(=O)O[C@@H](C)[C@H](NC(=O)[C@H](Cc3cc(F)cc(F)c3)NC(=O)Nc3ccc(OC(F)(F)F)cc3)C(=O)N3C[C@H](O)C[C@H]3C(=O)N(C)[C@@H](C)C(=O)N[C@@H](C)C(=O)N2C1`, for which the results for the MIC against Staphylococcus aureus [4], with Staphylococcus aureus [2] and in the experiment with Staphylococcus aureus [3] were 0.1 µM (≈ 0.0868 µg/mL), 0.1 µM (≈ 0.0868 µg/mL) and 100 µM (≈ 86.8 µg/mL), respectively.

As for `C[C@H]1C[C@H]2C(=O)OC[C@H](NC(=O)[C@H](Cc3cc(F)cc(F)c3)NC(=O)Nc3ccc4c(c3)OCO4)C(=O)N3CCC[C@H]3C(=O)N3CCCC[C@H]3C(=O)N[C@@H](C)C(=O)N2C1`, the minimal inhibitory concentration (MIC) with Staphylococcus aureus [4] and in the experiment with Staphylococcus aureus [1] was 3.1 µM (≈ 2.55 µg/mL) each time.

`COc1cccc(NC(=O)N[C@@H](Cc2ccccc2)C(=O)N[C@H]2COC(=O)[C@@H]3C[C@@H](C)CN3C(=O)[C@H](C)NC(=O)[C@@H]3CCCCN3C(=O)[C@@H]3CCCN3C2=O)c1`: the MIC in the experiment on Staphylococcus aureus [4] and in the experiment with Staphylococcus aureus [2] was 3.13 µM (≈ 2.42 µg/mL) throughout.

Regarding `CN[C@@H]1[C@H](O)[C@H](NC)[C@H]2O[C@@]3(O)C(=O)C[C@@H](C)O[C@H]3O[C@@H]2[C@H]1O` [SPECTINOMYCIN], the MIC with Staphylococcus aureus [4] and with Staphylococcus aureus [1] was 50 µM (≈ 16.6 µg/mL) throughout.

For `C[C@H]1C[C@H]2C(=O)O[C@@H](C)[C@H](NC(=O)[C@H](Cc3cc(F)cc(F)c3)NC(=O)Nc3ccc4c(c3)OCO4)C(=O)N3CCC[C@H]3C(=O)N3CCCC[C@H]3C(=O)N[C@@H](C)C(=O)N2C1`, the MIC in the experiment on Staphylococcus aureus [4] and with Staphylococcus aureus [1] was 0.8 µM (≈ 0.67 µg/mL) in each case.
